According to patent publication US20250114311A1, “IONIZABLE CATIONIC COMPOUNDS FOR MESSENGER RNA DELIVERY” (SEQIRUS INC., priority 2021, published 2025):

Legend:
[1] = tested on: Balb/c mice; test: Mouse immunogenicity study, antigen-specific T cells by intracellular cytokine staining; type: in vivo; conditions: prime-boost, LNPs with saRNA expressing H5 and N1, peptide stimulation, FIG. 6
[2] = TNS fluorescence apparent pKa protocol for saRNA-LNP; type: physicochemical; conditions: saRNA-LNPs, TNS 6 μM, to 9.5, 25° C., EC50 of sigmoidal curve
Procedure: In a black 96-well plate, solutions of saRNA-LNP (final assay concentration 2 μg/mL total RNA) in a series of buffers ranging from pH 4 to 9.5 were prepared. Buffers between pH4 to 7.6 were prepared from disodium phosphate and citric acid. Buffers from 7.8 to 9.5 were prepared by titrating tris buffer with 10 N sodium hydroxide. To each well was added 6-(p-Toluidino)-2-naphthalenesulfonic acid sodium salt (TNS) in water to a final assay concentration of 6 μM. The fluorescence was read on a plate reader at 25° C. with an excitation setting of 321 nm and an emission setting of 445 nm. The intensity values were plotted as a function of pH using GraphPad Prism and were fit with a sigmoidal dose response curve. The apparent pKa was determined as the EC50 of this curve where half of the ionizable amines are expected to be protonated.

[3] = tested on: BHK-V cells; test: In vitro potency of saRNA-LNPs (antigen-expressing cells, flow cytometry); type: cell-based; conditions: FIG. 3
Procedure: The ability of the saRNA-LNPs to transfect cultured cells was characterized using an in vitro assay based on the percentage of cells expressing the antigen of interest. Specifically, 1 million BHK-V cells were co-incubated with saRNA-LNP of varying concentration (highest 50 ng per well, lowest 0.39 ng per well) in 0.3 mL of media for 17-19 hours at 37° C. with 5% CO2. Subsequently, the cells were scraped from the dish to form a single-cell suspension, fixed and permeabilized (BD Cytofix/Perm kit), and then stained with fluorophore-labeled antigen-specific antibodies against H5 and N1 (for saRNA expressing both H5 and N1). Luciferase expression was not measured for saRNA expressing both H5 and luciferase. The percentage of single or double antigen positive cells was quantified using a BD Accuri flow cytometer. […] The slope of that line multiplied by −100,000 was reported as the LNP potency. Alternatively, a similar assay was performed in a 96-well using BHK-21 cells and analysed using a Cytation 5 Cell Imaging Multimode Reader (Agilent). The results of this assay were analysed in the same way as described for the flow cytometry assay.

With `CCCCCCCCCC(CCCCCCCCC(=O)OCC(CCCC)CCCCCC)OC(=O)CCCN(C)C` (stereo not shown) [Compound 11] the “activated antigen-specific CD8 T cells” value [1] was “measurable levels”, the pKa [2] was 6.25 and the “LNP potency (in vitro), comparison of the two LNPs” value ([3]; both saRNA constructs examined) was “trended higher in potency”. The “ability to transfect BHK-V cells in vitro” value ([3]; saRNA-LNP, 17-19 hours) was “able to transfect”.
